Assay results taken from patent EP2070923A1, “Insecticide iminoheterocycles” (priority 2007, dated 2009).

What was measured:
[1] = test system: Lucilia cuprina Larven; assay: Lucilia cuprina test (treated horse meat, larvae); assay type: in vivo; conditions: 100 % = all larvae killed, read-out: Abtötung
Text: Zur Herstellung einer zweckmäßigen Wirkstoffzubereitung vermischt man 1 Gewichtsteil Wirkstoff mit der angegebenen Menge Wasser und verdünnt das Konzentrat mit Wasser auf die gewünschte Konzentration. Gefäße, die Pferdefleisch enthalten, das mit der Wirkstoffzubereitung der gewünschten Konzentration behandelt wurde, werden mit Lucilia cuprina Larven besetzt. Nach der gewünschten Zeit wird die Abtötung in % bestimmt. Dabei bedeutet 100 %, dass alle Larven abgetötet wurden; 0 % bedeutet, dass keine Larven abgetötet wurden. Bei diesem Test zeigen z. B. die folgenden Verbindungen der Herstellungsbeispiele eine Wirkung von ≥ 80 % bei einer Aufwandmenge von 100 ppm: • Bsp. Nr. 65

[2] = test system: Myzus persicae; assay: Myzus test (spray treatment); assay type: in vivo; conditions: foliar, 500 g/ha, spray on Brassica pekinensis leaf discs, 100 % = all aphids killed, read-out: Wirkung
Text: Myzus-Test (Spritzbehandlung)
Zur Herstellung einer zweckmäßigen Wirkstoffzubereitung vermischt man 1 Gewichtsteil Wirkstoff mit den angegebenen Mengen Lösungsmittel und Emulgator und verdünnt das Konzentrat mit emulgatorhaltigem Wasser auf die gewünschte Konzentration. Chinakohlblattscheiben (Brassica pekinensis), die von allen Stadien der Grünen Pfirsichblattlaus (Myzus persicae) befallen sind, werden mit einer Wirkstoffzubereitung der gewünschten Konzentration gespritzt. Nach der gewünschten Zeit wird die Wirkung in % bestimmt. Dabei bedeutet 100 %, dass alle Blattläuse abgetötet wurden; 0 % bedeutet, dass keine Blattläuse abgetötet wurden. Bei diesem Test zeigen z. B. die folgenden Verbindungen der Herstellungsbeispiele eine Wirkung von ≥ 80 % bei einer Aufwandmenge von 500 g/ha: • Bsp. Nr. 2, 3, 31, 32, 33, 36, 37, 39, 40, 41, 42, 43, 44, 45, 46, 63, 64, 65, 66, 86, 87, 88, 90, 95, 96, 97, 99, 103

[3] = logP (HCOOH); conditions: hplc, formic acid
[4] = test system: Boophilus microplus; assay: Boophilus microplus test (injection); assay type: in vivo; conditions: 20 µg/Tier; injection into abdomen; 100 % = no tick laid fertile eggs
Text: Boophilus microplus -Test (Injektion)
Zur Herstellung einer zweckmäßigen Wirkstoffzubereitung vermischt man 1 Gewichtsteil Wirkstoff mit der angegebenen Menge Lösungsmittel und verdünnt das Konzentrat mit Lösungsmittel auf die gewünschte Konzentration. Die Wirkstofflösung wird in das Abdomen (Boophilus microplus) injiziert, die Tiere werden in Schalen überführt und in einem klimatisierten Raum aufbewahrt. Nach der gewünschten Zeit wird die Wirkung in % bestimmt. Dabei bedeutet 100%, dass keine Zecke fertile Eier gelegt hat. Bei diesem Test zeigen z. B. die folgenden Verbindungen der Herstellungsbeispiele eine Wirkung von = 80 % bei einer Aufwandmenge von 20 µg/Tier: • Bsp. Nr. 43, 44, 45, 46, 63, 64, 65, 66

SMILES: COCCNC(=S)N1CCOC1=N[C@@H](C)c1cccs1 [Beispiel 65]
- mortality at 100 ppm [1]: ≥ 80%
- mortality at 500 g/ha [2]: ≥ 80%
- chromatographic logP [3]: 3.38
- Wirkung [4]: 80%
